The IC50 is the concentration that inhibits the measured activity by half. In general, Ki refers to the equilibrium dissociation constant of an inhibitor or competing ligand from its target.

For series [1], the target named is Vascular endothelial growth factor receptor 1 (Homo sapiens, UniProt P17948). Put plainly: Inhibition of VEGFR1 assessed as inhibition of phosphorylation in presence of 2 uM ATP by HTRF assay. The series is classed as functional.
In series [2] the target is T1, Vascular endothelial growth factor receptor 2 (Homo sapiens, UniProt P35968). Put plainly: Inhibition of VEGFR2 assessed as inhibition of phosphorylation in presence of 2 uM ATP by HTRF assay. The series is classed as functional. (Time-resolved FRET reads energy transfer from a long-lived donor to a nearby acceptor.)
Series [3] has as its target T1, Vascular endothelial growth factor receptor 2. Put plainly: Inhibition of VEGFR2 assessed as inhibition of phosphorylation in human 293 cells by cell-based ELISA. The series is classed as functional, HEK293. Background: An ELISA detects its analyte on a solid surface through an enzyme-linked reagent.
The target in series [4] is Insulin-like growth factor 1 receptor (Homo sapiens) (UniProt P08069). Nature of the series: Inhibition of IGF1R at 10 uM. On the set-up: scale not given: the % may be the effect or the level left.
The species entered for series [5] is Homo sapiens. Put plainly: Inhibition of InR at 10 uM. More on the design: scale not given: the % may be the effect or the level left.
The target in series [6] is Fibroblast growth factor receptor 1 (Homo sapiens) (UniProt P11362). Put plainly: Inhibition of FGFR1 at 10 uM. On the set-up: scale not given: the % may be the effect or the level left.
Fibroblast growth factor receptor 1 (Homo sapiens), sequence (P11362 22-822 limits assumed): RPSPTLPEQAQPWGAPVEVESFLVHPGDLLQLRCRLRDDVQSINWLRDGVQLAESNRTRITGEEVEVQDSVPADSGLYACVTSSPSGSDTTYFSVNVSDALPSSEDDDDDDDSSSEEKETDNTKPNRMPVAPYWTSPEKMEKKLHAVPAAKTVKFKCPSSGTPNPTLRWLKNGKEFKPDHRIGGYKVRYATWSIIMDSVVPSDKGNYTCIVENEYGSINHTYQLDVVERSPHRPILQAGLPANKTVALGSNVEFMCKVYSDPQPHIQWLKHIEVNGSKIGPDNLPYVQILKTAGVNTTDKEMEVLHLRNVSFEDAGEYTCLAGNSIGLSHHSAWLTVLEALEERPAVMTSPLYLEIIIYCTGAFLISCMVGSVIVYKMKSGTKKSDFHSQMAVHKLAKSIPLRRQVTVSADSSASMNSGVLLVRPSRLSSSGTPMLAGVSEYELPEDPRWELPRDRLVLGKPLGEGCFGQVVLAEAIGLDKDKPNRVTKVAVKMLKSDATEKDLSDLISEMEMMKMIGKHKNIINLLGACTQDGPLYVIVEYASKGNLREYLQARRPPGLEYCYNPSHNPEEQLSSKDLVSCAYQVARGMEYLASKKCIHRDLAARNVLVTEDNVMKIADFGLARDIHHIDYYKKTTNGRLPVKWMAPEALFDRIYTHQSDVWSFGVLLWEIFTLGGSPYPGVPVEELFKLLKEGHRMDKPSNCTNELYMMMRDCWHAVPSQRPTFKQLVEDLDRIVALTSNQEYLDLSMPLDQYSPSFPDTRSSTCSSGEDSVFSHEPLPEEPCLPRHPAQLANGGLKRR
The target of series [7] is Receptor-type tyrosine-protein kinase FLT3 (Homo sapiens) (UniProt P36888). Nature of the series: Inhibition of Flt3 at 10 uM. More on the design: scale not given: the % may be the effect or the level left.
Receptor-type tyrosine-protein kinase FLT3 (Homo sapiens), sequence (P36888 whole entry): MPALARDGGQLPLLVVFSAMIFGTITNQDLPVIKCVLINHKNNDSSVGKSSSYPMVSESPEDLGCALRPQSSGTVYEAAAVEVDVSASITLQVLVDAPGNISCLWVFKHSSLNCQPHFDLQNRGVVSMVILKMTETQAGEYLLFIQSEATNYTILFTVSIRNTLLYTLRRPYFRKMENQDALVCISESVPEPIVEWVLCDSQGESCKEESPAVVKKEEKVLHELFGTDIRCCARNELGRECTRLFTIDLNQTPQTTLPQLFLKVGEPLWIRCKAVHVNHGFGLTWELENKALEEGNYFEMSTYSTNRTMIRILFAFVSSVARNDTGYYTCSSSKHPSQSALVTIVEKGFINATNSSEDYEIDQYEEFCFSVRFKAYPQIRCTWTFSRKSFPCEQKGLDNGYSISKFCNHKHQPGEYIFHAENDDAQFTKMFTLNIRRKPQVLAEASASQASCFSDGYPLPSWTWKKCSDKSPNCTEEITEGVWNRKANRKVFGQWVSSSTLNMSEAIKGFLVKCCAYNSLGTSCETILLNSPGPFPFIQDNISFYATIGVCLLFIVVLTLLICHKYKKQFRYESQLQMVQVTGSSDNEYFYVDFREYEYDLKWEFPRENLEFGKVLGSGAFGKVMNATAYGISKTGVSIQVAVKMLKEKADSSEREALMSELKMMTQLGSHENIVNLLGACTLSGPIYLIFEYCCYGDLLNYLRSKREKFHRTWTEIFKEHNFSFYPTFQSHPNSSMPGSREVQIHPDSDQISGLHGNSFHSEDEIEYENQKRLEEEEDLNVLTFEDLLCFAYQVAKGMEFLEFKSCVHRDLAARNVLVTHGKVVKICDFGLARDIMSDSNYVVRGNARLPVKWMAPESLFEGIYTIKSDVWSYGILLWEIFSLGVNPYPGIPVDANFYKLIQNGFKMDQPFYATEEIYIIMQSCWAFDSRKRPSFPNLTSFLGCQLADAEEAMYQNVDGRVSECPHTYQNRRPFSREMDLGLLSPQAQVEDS
The target in series [8] is Vascular endothelial growth factor receptor 3 (Homo sapiens) (UniProt P35916). Put plainly: Inhibition of Flt4 at 10 uM. More on the design: scale not given: the % may be the effect or the level left.
Vascular endothelial growth factor receptor 3 (Homo sapiens), sequence (P35916 whole entry): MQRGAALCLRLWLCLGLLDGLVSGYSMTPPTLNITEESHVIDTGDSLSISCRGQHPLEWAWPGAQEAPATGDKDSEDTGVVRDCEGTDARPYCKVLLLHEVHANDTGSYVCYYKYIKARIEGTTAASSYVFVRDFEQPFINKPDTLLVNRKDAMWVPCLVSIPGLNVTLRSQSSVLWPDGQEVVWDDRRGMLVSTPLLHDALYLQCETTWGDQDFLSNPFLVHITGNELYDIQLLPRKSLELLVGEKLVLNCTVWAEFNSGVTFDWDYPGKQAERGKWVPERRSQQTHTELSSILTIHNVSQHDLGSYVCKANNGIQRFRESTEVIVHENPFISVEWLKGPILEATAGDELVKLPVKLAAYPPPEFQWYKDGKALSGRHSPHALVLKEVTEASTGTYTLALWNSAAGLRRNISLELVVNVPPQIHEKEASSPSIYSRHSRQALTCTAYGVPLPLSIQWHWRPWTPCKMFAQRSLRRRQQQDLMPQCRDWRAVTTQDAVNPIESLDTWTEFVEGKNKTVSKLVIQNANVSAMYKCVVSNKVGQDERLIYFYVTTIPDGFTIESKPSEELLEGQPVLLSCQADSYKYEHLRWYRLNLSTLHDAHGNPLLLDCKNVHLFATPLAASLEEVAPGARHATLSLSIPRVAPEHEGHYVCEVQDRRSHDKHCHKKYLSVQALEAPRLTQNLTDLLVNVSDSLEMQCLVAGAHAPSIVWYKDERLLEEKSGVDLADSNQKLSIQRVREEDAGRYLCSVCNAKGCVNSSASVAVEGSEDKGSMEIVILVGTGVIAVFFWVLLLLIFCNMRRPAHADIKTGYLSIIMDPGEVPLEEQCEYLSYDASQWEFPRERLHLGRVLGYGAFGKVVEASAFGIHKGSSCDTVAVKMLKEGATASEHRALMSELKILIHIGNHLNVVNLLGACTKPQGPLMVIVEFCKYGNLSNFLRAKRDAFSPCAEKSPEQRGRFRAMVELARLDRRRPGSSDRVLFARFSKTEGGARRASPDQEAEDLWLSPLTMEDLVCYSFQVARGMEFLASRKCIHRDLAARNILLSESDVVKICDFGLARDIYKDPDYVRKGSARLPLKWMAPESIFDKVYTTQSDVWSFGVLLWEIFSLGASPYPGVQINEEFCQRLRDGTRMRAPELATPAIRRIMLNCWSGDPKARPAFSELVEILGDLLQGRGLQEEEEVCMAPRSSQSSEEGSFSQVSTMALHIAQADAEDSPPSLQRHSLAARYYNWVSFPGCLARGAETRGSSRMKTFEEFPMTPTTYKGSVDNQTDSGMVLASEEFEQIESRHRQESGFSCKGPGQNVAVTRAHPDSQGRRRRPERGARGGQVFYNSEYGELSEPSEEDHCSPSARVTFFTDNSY
Series [9] has as its target Epidermal growth factor receptor (Homo sapiens) (UniProt P00533). Put plainly: Inhibition of ErbB1 at 10 uM. On the set-up: scale not given: the % may be the effect or the level left.
In series [10] the target is Receptor tyrosine-protein kinase erbB-2 (Homo sapiens) (UniProt P04626). Nature of the series: Inhibition of ErbB2/Her2 at 10 uM. More on the design: scale not given: the % may be the effect or the level left.
Receptor tyrosine-protein kinase erbB-2 (Homo sapiens), sequence (P04626 whole entry): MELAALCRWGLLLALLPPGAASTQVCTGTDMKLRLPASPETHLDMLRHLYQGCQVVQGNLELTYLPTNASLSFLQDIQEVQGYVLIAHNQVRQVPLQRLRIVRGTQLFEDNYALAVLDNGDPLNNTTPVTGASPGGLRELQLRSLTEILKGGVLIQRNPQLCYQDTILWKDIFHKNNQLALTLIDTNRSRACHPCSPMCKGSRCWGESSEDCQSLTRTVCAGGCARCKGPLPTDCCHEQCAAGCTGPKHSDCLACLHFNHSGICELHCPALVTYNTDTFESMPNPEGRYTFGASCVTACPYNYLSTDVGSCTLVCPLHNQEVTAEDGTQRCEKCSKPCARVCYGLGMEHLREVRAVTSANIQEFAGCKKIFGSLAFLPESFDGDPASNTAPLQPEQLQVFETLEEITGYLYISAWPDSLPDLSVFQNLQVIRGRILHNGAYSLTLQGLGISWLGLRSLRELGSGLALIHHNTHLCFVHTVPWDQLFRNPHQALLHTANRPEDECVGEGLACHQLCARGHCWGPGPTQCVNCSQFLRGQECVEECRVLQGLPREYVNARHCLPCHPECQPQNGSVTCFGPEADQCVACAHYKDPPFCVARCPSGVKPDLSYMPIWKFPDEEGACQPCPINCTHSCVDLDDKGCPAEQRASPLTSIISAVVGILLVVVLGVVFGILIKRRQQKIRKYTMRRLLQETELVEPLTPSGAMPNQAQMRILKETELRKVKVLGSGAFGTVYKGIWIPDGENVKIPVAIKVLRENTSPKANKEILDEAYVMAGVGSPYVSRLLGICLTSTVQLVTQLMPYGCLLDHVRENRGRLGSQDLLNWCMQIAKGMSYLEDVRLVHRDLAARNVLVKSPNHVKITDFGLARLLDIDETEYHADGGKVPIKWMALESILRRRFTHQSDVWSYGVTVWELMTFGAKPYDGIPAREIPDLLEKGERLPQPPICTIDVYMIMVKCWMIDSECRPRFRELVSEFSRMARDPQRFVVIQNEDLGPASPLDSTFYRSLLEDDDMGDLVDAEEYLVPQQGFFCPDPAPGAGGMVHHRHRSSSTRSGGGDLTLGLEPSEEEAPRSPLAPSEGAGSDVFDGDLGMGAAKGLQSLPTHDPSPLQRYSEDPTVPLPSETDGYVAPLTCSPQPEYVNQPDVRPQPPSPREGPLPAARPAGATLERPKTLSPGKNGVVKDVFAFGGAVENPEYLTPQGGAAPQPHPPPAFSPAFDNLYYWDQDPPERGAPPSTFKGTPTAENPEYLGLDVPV
Series [11] deals with Hepatocyte growth factor receptor (Homo sapiens) (UniProt P08581). Nature of the series: Inhibition of cMet at 10 uM. More on the design: scale not given: the % may be the effect or the level left.
For series [12], the species on record is Homo sapiens. Nature of the series: Inhibition of PKA at 10 uM. On the set-up: scale not given: the % may be the effect or the level left.
In series [13] the target is Glycogen synthase kinase-3 beta (Homo sapiens) (UniProt P49841). Nature of the series: Inhibition of GSK3-beta at 10 uM. More on the design: scale not given: the % may be the effect or the level left.
The target of series [14] is RAC-alpha serine/threonine-protein kinase (Homo sapiens) (UniProt P31749). Nature of the series: Inhibition of PKB/Akt at 10 uM. On the set-up: scale not given: the % may be the effect or the level left.
Series [15] is filed under the species Homo sapiens. Put plainly: Inhibition of bcr-Abl at 10 uM. On the set-up: scale not given: the % may be the effect or the level left.
For series [16], the species on record is Homo sapiens. Put plainly: Inhibition of Cdk1 at 10 uM. On the set-up: scale not given: the % may be the effect or the level left.
Series [17] has as its target RAF proto-oncogene serine/threonine-protein kinase (Homo sapiens) (UniProt P04049). Put plainly: Inhibition of Raf1 at 10 uM. On the set-up: scale not given: the % may be the effect or the level left.
Series [18] has as its target Cyclin-dependent kinase 2 (Homo sapiens) (UniProt P24941). Put plainly: Inhibition of Cdk2 at 10 uM. On the set-up: scale not given: the % may be the effect or the level left.
A short description of series [19]: Passive diffusion assessed as intrinsic permeability across Caco-2 cell membrane. The class given is ADME, cell-based. The conditions noted are these: human, read-out: permeability (converted). (Passage across Caco-2 layers is used to estimate intestinal permeability.)
For series [20], the system named is Caco-2. Nature of the series: Passive diffusion assessed as absorption potential across Caco-2 cell membrane. The series is classed as ADME, cell-based. Conditions: human; call rule not given here.
The target in series [21] is T1, Vascular endothelial growth factor receptor 2. Nature of the series: Displacement of [32P]ATP from human VEGFR2 after 45 mins.

RAF proto-oncogene serine/threonine-protein kinase (Homo sapiens), sequence (P04049 whole entry): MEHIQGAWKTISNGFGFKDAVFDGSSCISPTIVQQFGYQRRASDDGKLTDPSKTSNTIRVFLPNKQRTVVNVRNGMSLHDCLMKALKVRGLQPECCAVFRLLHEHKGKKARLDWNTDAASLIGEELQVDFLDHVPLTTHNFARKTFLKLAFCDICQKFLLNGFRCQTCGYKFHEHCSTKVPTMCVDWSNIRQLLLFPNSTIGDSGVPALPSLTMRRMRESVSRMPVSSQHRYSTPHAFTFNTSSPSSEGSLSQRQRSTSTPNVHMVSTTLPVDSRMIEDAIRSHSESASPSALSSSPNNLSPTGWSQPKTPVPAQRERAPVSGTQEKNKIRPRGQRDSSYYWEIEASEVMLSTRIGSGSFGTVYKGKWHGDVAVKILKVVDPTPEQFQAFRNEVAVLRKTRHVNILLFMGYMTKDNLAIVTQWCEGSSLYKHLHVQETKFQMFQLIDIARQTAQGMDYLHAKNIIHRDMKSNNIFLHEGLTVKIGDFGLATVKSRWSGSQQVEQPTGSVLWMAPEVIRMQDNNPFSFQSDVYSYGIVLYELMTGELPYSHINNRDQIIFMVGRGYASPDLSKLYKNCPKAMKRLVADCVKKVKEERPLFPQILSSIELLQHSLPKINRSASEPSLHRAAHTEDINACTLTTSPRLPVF

Consider `CC(C)c1ccc(NC(=O)c2ccnn2CCc2ccncc2)cc1`, for which the IC50 in series [1] was found to be 440 nM; in [2], 74 nM; in series [3], 53 nM. In addition, the Activity in [4] is over 30%; in [5], over 30%; in series [6], over 30%; in series [7] it was over 30%; in [8], over 30%; in series [9], under 30%. Further, the Activity in [10], in series [11], in series [12], in series [13], in series [14] and in series [15] was over 30% throughout. Further, the Activity in [16] is over 30%; in series [17], over 30%; in series [18], over 30%; in series [20] it was “Active”. The Papp in series [19] is 8.18 ×10⁻⁶ cm/s.
Turning to `O=C(Nc1ccc(OC(F)(F)F)cc1)c1ccnn1CCc1ccncc1`, the results for the IC50 in series [1], in [2] and in [3] were 190 nM, 28 nM and 18 nM, respectively. For the same compound, the Ki is 90 nM in [2] and 80 nM in series [21]. For the same compound, the Activity in [4] was over 30%; in series [5], over 30%; in [6], over 30%; in series [7] it was over 30%; in [8], over 30%; in series [9] it was under 30%. Besides, the Activity in [10], in series [11], in [12], in series [13], in series [14] and in [15] was over 30% in each case. The Activity is over 30% in [16], over 30% in series [17], over 30% in series [18] and “Active” in series [20]. For the same compound, in series [19], the Papp was 7.03 ×10⁻⁶ cm/s.
Consider `CCc1ccc(NC(=O)c2ccnn2CCc2ccncc2)cc1`, for which the IC50 stood at 220 nM in [1], 120 nM in series [2] and 86 nM in series [3]. Also, the Activity in series [4] is over 30%; in [5] it was over 30%; in [6], over 30%; in series [7], over 30%; in [8], over 30%; in series [9], under 30%. The Activity in series [10], in series [11], in series [12], in series [13], in series [14] and in series [15] was over 30% throughout. Besides, the Activity was over 30% in [16], over 30% in [17], over 30% in [18] and “Active” in series [20]. Besides, in [19], the Papp was 9.7 ×10⁻⁶ cm/s.
In the case of `O=C(Nc1ccc(OC(F)(F)F)cc1)c1cc2ccccc2n1CCc1ccncc1`, the IC50 in [1], in series [2] and in series [3] was over 10000 nM in each case. Moreover, the Activity in [4] was over 30%; in series [5], over 30%; in [6], over 30%; in series [7] it was over 30%; in [8] it was over 30%; in series [9], under 30%. Besides, the Activity in series [10], in series [11], in series [12], in series [13], in series [14] and in series [15] was over 30% throughout. Further, the Activity in [16], in [17] and in [18] was over 30% each time.
`O=C(Nc1ccc(C(F)(F)F)c(Cl)c1)c1nc2ccccc2n1CCc1ccncc1`: the IC50 in series [1], in series [2] and in series [3] was over 10000 nM throughout. Further, the Activity in series [4] is over 30%; in series [5] it was over 30%; in [6], over 30%; in [7], over 30%; in series [8] it was over 30%; in series [9], under 30%. Further, the Activity in series [10], in [11], in [12], in series [13], in series [14] and in [15] was over 30% each time. The Activity in [16], in series [17] and in [18] was over 30% throughout.
Consider `O=C(Nc1ccc(-c2ccccc2)cc1)c1ccnn1CCc1ccncc1`, for which the IC50 in series [1] turned out to be 2250 nM; in series [2], 950 nM; in [3] it was 1560 nM. Moreover, the Activity is over 30% in series [4]; over 30% in series [5]; over 30% in series [6]; over 30% in series [7]; over 30% in [8]; under 30% in series [9]. Also, the Activity in [10], in series [11], in [12], in series [13], in series [14] and in [15] was over 30% in each case. Moreover, the Activity in [16], in series [17] and in series [18] was over 30% each time.
Consider `O=C(Nc1ccc(C(F)(F)F)cc1)c1ccnn1CCc1ccncc1`, for which the IC50 came to 380 nM in series [1], 69 nM in series [2] and 48 nM in series [3]. In addition, the Activity was over 30% in [4]; over 30% in [5]; over 30% in series [6]; over 30% in series [7]; over 30% in series [8]; under 30% in series [9]. In addition, the Activity in series [10], in series [11], in series [12], in series [13], in [14] and in series [15] was over 30% throughout. Also, the Activity in [16] was over 30%; in series [17], over 30%; in series [18], over 30%; in series [20], “Active”. The Papp in series [19] was 6.42 ×10⁻⁶ cm/s.
On to `O=C(Nc1ccc(OC(F)(F)F)cc1)c1nccn1CCc1ccncc1`, for which the IC50 in series [1] was 4270 nM; in series [2], 790 nM; in series [3], 1050 nM. The Activity in series [4] is over 30%; in [5], over 30%; in series [6], over 30%; in series [7] it was over 30%; in [8] it was over 30%; in series [9] it was under 30%. The Activity in series [10], in [11], in series [12], in series [13], in series [14] and in series [15] was over 30% throughout. Besides, the Activity in series [16], in series [17] and in series [18] was over 30% throughout.
With `O=C(Nc1ccc(Cl)cc1)c1nc2ccccc2n1CCc1ccncc1`, the IC50 in series [1], in [2] and in series [3] was over 10000 nM in each case. Moreover, the Activity in series [4] was over 30%; in series [5], over 30%; in [6], over 30%; in [7] it was over 30%; in [8], over 30%; in [9] it was under 30%. The Activity in series [10], in series [11], in series [12], in series [13], in [14] and in [15] was over 30% throughout. Besides, the Activity in [16], in [17] and in series [18] was over 30% throughout.
For the compound `O=C(Nc1ccc(Cl)cc1)c1ccnn1CCc1cccnc1`, the IC50 in series [1], in series [2] and in [3] was over 10000 nM in each case. The Activity in series [4] is over 30%; in series [5] it was over 30%; in [6], over 30%; in [7], over 30%; in series [8] it was over 30%; in [9], under 30%. Further, the Activity in series [10], in series [11], in [12], in [13], in series [14] and in series [15] was over 30% each time. Besides, the Activity in series [16], in series [17] and in series [18] was over 30% in each case.

The values above are taken from ChEMBL document CHEMBL1148870, “Novel inhibitors of VEGF receptors-1 and -2 based on azole-5-carboxamide templates” (Bioorg Med Chem Lett, 2007).
